Laboratory results taken from PMC11822212, “High-throughput screening identifies Aurora kinase B as a critical therapeutic target for Merkel cell carcinoma” (Nature Communications, 2025).
Where a name gives a salt, the structure may show the parent alone. Read-outs that look alike come from different tables or passages of the source.

Columns and labels:
MCC13 cells (VN-MCC) = experiment: qHTS cell viability (CellTiter-Glo, 72 h; primary and follow-up small molecule screen); format: cell-based, human
MCC26 cells (VN-MCC) = experiment: as above; format: cell-based, human
UISO cells (VN-MCC) = experiment: as above; format: cell-based, human
WAGA cells (VP-MCC) = experiment: as above; format: cell-based, human
MKL-1 cells (VP-MCC) = experiment: as above; format: cell-based, human
MKL-2 cells (VP-MCC) = experiment: as above; format: cell-based, human
HACAT cells = experiment: qHTS cell viability (CellTiter-Glo, 72 h; primary screen), control cell line; format: cell-based, human
HEK293T cells = experiment: as above; format: cell-based, human
NIH-3T3 cells = experiment: as above; format: cell-based, mouse
CRL-7250 cells = experiment: as above; format: cell-based
[1] = tested on: MCC cell lines (WAGA, MKL-1, MKL-2, MCC13, MCC26, UISO); experiment: qHTS cell viability, all six MCC cell lines as a group (mean AUC, MCC.avg); format: cell-based, human
[2] = tested on: VP-MCC cell lines (WAGA, MKL-1, MKL-2); experiment: qHTS cell viability, VP-MCC cell lines as a group (mean AUC, VP.MCC.avg); format: cell-based, human
[3] = tested on: VN-MCC cell lines (MCC13, MCC26, UISO); experiment: qHTS cell viability, VN-MCC cell lines as a group (mean AUC, VN.MCC.avg); format: cell-based, human
[4] = tested on: control cell lines (HACAT, HEK293T, CRL-7250, NIH-3T3); experiment: qHTS cell viability, control cell lines as a group (mean AUC, Control.avg); format: cell-based
[5] = tested on: six MCC cell lines and four control cell lines; experiment: qHTS cell viability, all 10 cell lines screened; format: cell-based
[6] = NPC library, qHTS dose-response AUC, MCC13
[7] = NPC library; qHTS dose-response AUC, MCC26
[8] = NPC library, qHTS dose-response AUC, UISO
[9] = NPC library, qHTS dose-response AUC, WAGA
[10] = NPC library, qHTS dose-response AUC, MKL1
[11] = NPC library, qHTS dose-response AUC, MKL2
[12] = NPC library, qHTS dose-response AUC, HACAT control
[13] = NPC library, qHTS dose-response AUC, NIH3T3 control
[14] = NPC library, qHTS dose-response AUC, CRL7250 control
[15] = NPC library, mean AUC of six MCC cell lines
[16] = NPC library, mean AUC of VP-MCC cell lines
[17] = NPC library, therapeutic window: Control avg AUC minus VP-MCC avg AUC
[18] = NPC library, mean AUC of VN-MCC cell lines
[19] = NPC library, therapeutic window: Control avg AUC minus VN-MCC avg AUC
[20] = NPC library, mean AUC of control cell lines
[21] = NPC library, therapeutic window: Control avg AUC minus MCC avg AUC
[22] = NPC library; qHTS dose-response AUC, HEK293T control

Structure (SMILES)	MCC13_AUC (MCC13 cells (VN-MCC); [6])	MCC26_AUC (MCC26 cells (VN-MCC); [7])	UISO_AUC (UISO cells (VN-MCC); [8])	WAGA_AUC (WAGA cells (VP-MCC); [9])	MKL1_AUC (MKL-1 cells (VP-MCC); [10])	MKL2_AUC (MKL-2 cells (VP-MCC); [11])	HACAT_AUC (HACAT cells; [12])	NIH3T3_AUC (NIH-3T3 cells; [13])	CRL7250_AUC (CRL-7250 cells; [14])	MCC_Avg_AUC [1, 15]	VP-MCC_Avg_AUC [2, 16]	Control-VP-MCC [2, 17]	VN-MCC_Avg_AUC [3, 18]	Control-VN-MCC [3, 19]	Control_Avg_AUC [4, 20]	Control-MCC [5, 21]	HEK293T_AUC (HEK293T cells; [22])	MCC13_AUC (MCC13 cells (VN-MCC))	MCC26_AUC (MCC26 cells (VN-MCC))	UISO_AUC (UISO cells (VN-MCC))	other results
CCCCCC(=O)O[C@]1(C(C)=O)CC[C@H]2[C@@H]3CCC4=CC(=O)CC[C@]4(C)[C@H]3CC[C@@]21C [Hydroxyprogesterone caproate]	442.155	432.583	419.635	360.251	343.375	288.23	471.336	480.983	467.486	381.038	330.619	125.408	431.458	24.569	456.027	74.9886	–	–	–	–	MCC26_AUC (MCC26 cells (VN-MCC); NPC library, qHTS dose-response AUC, MCC26): 432.584; HEK293T_AUC (HEK293T cells; NPC library, qHTS dose-response AUC, HEK293T control): 404.302; MCC_Avg_AUC ([1]; NPC library, mean AUC of all 6 MCC cell lines): 381.038; Control-VP-MCC ([2]; Control AUC minus VP-MCC AUC): 125.408; Control-VN-MCC ([3]; Control AUC minus VN-MCC AUC): 24.569
O=C1OC(CCN2CCCCC2)OC1(c1ccccc1)c1ccccc1 (stereo not drawn) [Pipoxolan hydrochloride]	478.552	460.749	412.652	433.006	437.466	392.534	493.052	468.074	487.056	435.827	421.002	52.3854	450.651	22.7364	473.388	37.5609	445.369	–	–	–	–
O=C(CCN1CCC(c2ccccc2)C1)c1ccc2c(c1)OCCO2 (stereo not drawn) [Proroxan]	464.203	531.522	463.935	401.693	401.495	379.094	483.91	459.69	469.26	440.324	394.094	67.3656	486.553	-25.0934	461.46	21.1361	432.979	–	–	–	Area under the dose-response curve (AUC) MCC13 Replicate 1 (MCC13 cells (VN-MCC); follow-up screen, MCC13, replicate 1): 493.7; Area under the dose-response curve (AUC) MCC13 Replicate 2 (MCC13 cells (VN-MCC); follow-up screen, MCC13, replicate 2): 500.7; Area under the dose-response curve (AUC) MCC13 Replicate 3 (MCC13 cells (VN-MCC); follow-up screen, MCC13, replicate 3): 474.6; Area under the dose-response curve (AUC) MCC26 Replicate 1 (MCC26 cells (VN-MCC); follow-up screen; MCC26; replicate 1): 461.4; Area under the dose-response curve (AUC) MCC26 Replicate 2 (MCC26 cells (VN-MCC); follow-up screen; MCC26; replicate 2): 445.0; Area under the dose-response curve (AUC) MCC26 Replicate 3 (MCC26 cells (VN-MCC); follow-up screen; MCC26; replicate 3): 478.9; Area under the dose-response curve (AUC) UISO Replicate 1 (UISO cells (VN-MCC); follow-up screen, UISO, replicate 1): 440.8; Area under the dose-response curve (AUC) UISO Replicate 2 (UISO cells (VN-MCC); follow-up screen, UISO, replicate 2): 468.5; Area under the dose-response curve (AUC) UISO Replicate 3 (UISO cells (VN-MCC); follow-up screen, UISO, replicate 3): 484.4; Area under the dose-response curve (AUC) WAGA Replicate 1 (WAGA cells (VP-MCC); follow-up screen, WAGA, replicate 1): 471.3; Area under the dose-response curve (AUC) WAGA Replicate 2 (WAGA cells (VP-MCC); follow-up screen, WAGA, replicate 2): 460.1; Area under the dose-response curve (AUC) WAGA Replicate 3 (WAGA cells (VP-MCC); follow-up screen, WAGA, replicate 3): 475.6; Area under the dose-response curve (AUC) MKL-1 Replicate 1 (MKL-1 cells (VP-MCC); follow-up screen, MKL-1, replicate 1): 420.7; Area under the dose-response curve (AUC) MKL-1 Replicate 2 (MKL-1 cells (VP-MCC); follow-up screen, MKL-1, replicate 2): 440.6; Area under the dose-response curve (AUC) MKL-1 Replicate 3 (MKL-1 cells (VP-MCC); follow-up screen, MKL-1, replicate 3): 412.1; Area under the dose-response curve (AUC) MKL-2 Replicate 1 (MKL-2 cells (VP-MCC); follow-up screen, MKL-2, replicate 1): 423.0; Area under the dose-response curve (AUC) MKL-2 Replicate 2 (MKL-2 cells (VP-MCC); follow-up screen, MKL-2, replicate 2): 412.3; Area under the dose-response curve (AUC) MKL-2 Replicate 3 (MKL-2 cells (VP-MCC); follow-up screen, MKL-2, replicate 3): 429.1
C#CCN(C)[C@H](C)Cc1ccccc1 [Selegiline hydrochloride]	–	–	–	–	–	–	–	–	–	–	–	–	–	–	–	–	–	453.711	442.321	478.192	WAGA_AUC (WAGA cells (VP-MCC)): 431.581; MKL1_AUC (MKL-1 cells (VP-MCC)): 401.694; MKL2_AUC (MKL-2 cells (VP-MCC)): 391.028; HACAT_AUC (HACAT cells): 471.82; HEK293T_AUC (HEK293T cells): 439.797; NIH3T3_AUC (NIH-3T3 cells): 471.047; CRL7250_AUC (CRL-7250 cells): 455.418; MCC_Avg_AUC [1]: 433.088; Control-VP-MCC [2]: 51.4197; VP-MCC_Avg_AUC [2]: 408.101; Control-VN-MCC [3]: 1.446; VN-MCC_Avg_AUC [3]: 458.075; Control_Avg_AUC [4]: 459.521; Control-MCC [5]: 26.4329
CC(O)C(=O)O.CCOc1ccc2nc3cc(N)ccc3c(N)c2c1.O [Ethacridine lactate hydrate]	–	–	–	–	–	–	–	–	–	–	–	–	–	–	–	–	–	439.497	472.196	374.889	WAGA_AUC (WAGA cells (VP-MCC)): 335.85; MKL1_AUC (MKL-1 cells (VP-MCC)): 391.16; MKL2_AUC (MKL-2 cells (VP-MCC)): 356.151; HACAT_AUC (HACAT cells): 492.059; HEK293T_AUC (HEK293T cells): 374.537; NIH3T3_AUC (NIH-3T3 cells): 456.142; CRL7250_AUC (CRL-7250 cells): 429.434; MCC_Avg_AUC [1]: 394.957; Control-VP-MCC [2]: 76.9894; VP-MCC_Avg_AUC [2]: 361.054; Control-VN-MCC [3]: 9.1824; VN-MCC_Avg_AUC [3]: 428.861; Control_Avg_AUC [4]: 438.043; Control-MCC [5]: 43.0859
Oc1ccc(O)cc1 [Hydroquinone]	503.441	512.585	450.538	370.144	415.173	400.457	491.952	488.45	487.877	442.057	395.258	91.96	488.855	-1.637	487.218	45.1616	480.593	–	–	–	MCC13_AUC (MCC13 cells (VN-MCC); area under the dose-response curve, MCC13 cells, AUC<450 = reduced viability): 503.441; MCC26_AUC (MCC26 cells (VN-MCC); area under the dose-response curve, MCC26 cells; AUC<450 = reduced viability): 512.585; UISO_AUC (UISO cells (VN-MCC); area under the dose-response curve, UISO cells, AUC<450 = reduced viability): 450.538; WAGA_AUC (WAGA cells (VP-MCC); area under the dose-response curve, WAGA cells, AUC<450 = reduced viability): 370.144; MKL1_AUC (MKL-1 cells (VP-MCC); area under the dose-response curve, MKL-1 cells, AUC<450 = reduced viability): 415.173; MKL2_AUC (MKL-2 cells (VP-MCC); area under the dose-response curve, MKL-2 cells, AUC<450 = reduced viability): 400.457; HACAT_AUC (HACAT cells; area under the dose-response curve, HACAT control cells, AUC<450 = reduced viability): 491.952; HEK293T_AUC (HEK293T cells; area under the dose-response curve, HEK293T control cells; AUC<450 = reduced viability): 480.593; NIH3T3_AUC (NIH-3T3 cells; area under the dose-response curve, NIH3T3 control cells, AUC<450 = reduced viability): 488.45; CRL7250_AUC (CRL-7250 cells; area under the dose-response curve, CRL7250 control cells, AUC<450 = reduced viability): 487.877
CNC(=O)[C@H](CC1=CN=C2C=CCC=C12)NC(=O)[C@@H](CC(=O)NO)CC(C)C [GM-6001]	–	–	–	–	–	–	–	–	–	–	–	–	–	–	–	–	–	475.165	475.207	484.498	WAGA_AUC (WAGA cells (VP-MCC)): 319.008; MKL1_AUC (MKL-1 cells (VP-MCC)): 284.283; MKL2_AUC (MKL-2 cells (VP-MCC)): 291.464; HACAT_AUC (HACAT cells): 458.777; HEK293T_AUC (HEK293T cells): 473.463; NIH3T3_AUC (NIH-3T3 cells): 471.496; CRL7250_AUC (CRL-7250 cells): 472.869; MCC_Avg_AUC [1]: 388.271; Control-VP-MCC [2]: 170.899; VP-MCC_Avg_AUC [2]: 298.252; Control-VN-MCC [3]: -9.139; VN-MCC_Avg_AUC [3]: 478.29; Control_Avg_AUC [4]: 469.151; Control-MCC [5]: 80.8804
CCCCC(CC)CNC(=N)NC(=N)NCCCCCCNC(=N)NC(=N)NCC(CC)CCCC (stereo not drawn) [Alexidine dihydrochloride]	392.522	401.146	330.63	351.758	329.916	344.79	392.766	453.563	401.378	358.46	342.155	64.8071	374.766	32.1955	406.962	48.5013	380.139	–	–	–	–
